Assay results as given in PMC5597121, “The human bitter taste receptor T2R38 is broadly tuned for bacterial compounds” (PLoS ONE, 2017).
Several values for one entry are separate records, joined by “and”; a condition that tells them apart may be missing. Identical values can stand only once. Like-named read-outs stand apart in the source and are kept apart here.

What was measured:
[1] = test system: mock transfected cells (empty vector); experiment: Single cell calcium imaging, control: mock transfected (empty vector) Peakrapid cells; type: cell-based, human
Description: (§1) The Peakrapid cell line expressing stably a chimeric Gα16gustducin44 G protein [21] was used. 40 000 cells were seeded in each well of a black/clear poly-D-lysine cellware pre-coated 96-well plate (Biocoat®, Becton-Dickinson, Erembodegem, Belgium) and transiently transfected with 50 ng of plasmid DNA containing the receptor sequence or not (empty vector) and with 50 ng of chaperone protein RTP4 per well. Forty hours after transfection, cells were incubated with the calcium-sensitive dye Fluo4 (Life Technologies, Oregon, USA) solubilized at 10 μg/ml in a buffer containing EMEM (150 mM NaCl, 5 mM KCl, 2 mM CaCl2, 1.2 mM MgCl2, 10 mM glucose), 10 mM HEPES, 0.01% (v/v) Pluronic F127, 0.1% (w/v) bovine serum albumin. After 1 h incubation at 37°C, cells were rinsed twice with the same buffer without Fluo4 and left in 50 μl buffer (prior ligand injection). Measurement were performed on a platform based on a motorized Axiobserver Z1 fluorescence microscope piloted by a Axiovision software (Zeiss, Jena, Germany) as described previously. For each selected well, images were taken 1 per second, during 30 seconds. 50 μl of the buffer containing the ligand twice concentrated was injected on the 2nd second of the time lapse record.
(§2) After time lapse record, the number of responding cells in each injected well was determined using ImageJ 1.34 (Rasband, W.S., ImageJ, National Institutes of Health, Bethesda, Maryland, USA, http://rsb.info.nih.gov/ij/1997-2004), and expressed as the percentage of the surface of a microscope field covered by activated cells with respect to the total surface of the field covered by confluent cells. Automated determination of the surface occupied by responding cells is easier to perform than a cell counting. The resulting percentage of positive surface provided a convenient estimation of the percentage of responding cells, as observed by comparing the percentage of positive surface and percentage of responsive cells determined by direct counting, in the same experiment. In agreement with the literature, the percentage of responding cells was proportional to the agonist concentration. During experiment in each plate, at least 2 wells were tested with phenylthiocarbamide (PTC) at 0.1 mM, which is one of the best characterized agonist of T2R38 in the literature. The activation of T2R38 by PTC allows normalization of the result of other tested molecules. The results were thus expressed as the percentage of PTC activation. In scaling calcium imaging assays using this latter receptor, concentration-responses curves were performed and data were fitted to a four parameter logistic equation: y=min+ (max− min)/1+10 ^(logEC50−x)nH . Min and max are the minimum and the maximum values of the percentage of cell-activated surface respectively, y is the percentage of cell-activated surface at the x concentration and nH is the Hill coefficient.

[2] = biological target: T1, T2R38 (Homo sapiens, UniProt P59533, A49P/I296V); experiment: Single cell calcium imaging, Peakrapid cells (Gα16gustducin44) transiently transfected with T2R38; type: cell-based; settings: for EC50: concentration-response curve, read-out: EC50; for specific activation of T2R38: ethanol-solubilized; for response of T2R38: solubilized in the aqueous buffer, 2 mM
T1 construct: leader: first 45 amino acids of rat somatostatin receptor subtype 3 (SSTR3) (N); expressed in transfected cells; host or cells: Peakrapid cells (HEK293 derivative, ATCC CRL-2828) stably expressing Galpha16gustducin44, co-transfected with human RTP4
T1 sequence (P59533 1-333 A49P/I296V): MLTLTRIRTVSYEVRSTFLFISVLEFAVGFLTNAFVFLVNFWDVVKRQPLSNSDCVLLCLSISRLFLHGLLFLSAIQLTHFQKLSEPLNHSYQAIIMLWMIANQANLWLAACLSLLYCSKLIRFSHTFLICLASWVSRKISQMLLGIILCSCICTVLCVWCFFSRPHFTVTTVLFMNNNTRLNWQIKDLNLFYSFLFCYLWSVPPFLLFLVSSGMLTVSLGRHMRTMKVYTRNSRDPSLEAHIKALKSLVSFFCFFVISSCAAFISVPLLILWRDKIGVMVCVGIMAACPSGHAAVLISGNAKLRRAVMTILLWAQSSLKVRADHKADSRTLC
Source text: The coding sequences of either the functional (PAV, GenBank accession number AY258597.1) and non-functional (AVI, GenBank accession number AF494231.1) were amplified from human genomic DNA by polymerase chain reaction.
These coding sequences were cloned in a pEFIB backbone vector in translational fusion with the coding sequence of a leader sequence corresponding to the 45 first amino acids of the rat somatostatin receptor subtype 3 [20]. The constructs were verified by sequencing. The coding sequence of RTP4 (Genbank accession number AY562238.1) was amplified from human spleen cDNA and cloned a pCI backbone vector.
The Gα16gustducin44 sequence was generated by swapping the last 132 nucleotides of the G α16 with the corresponding terminal sequence of the Gα-gustducin [21] and was cloned in a pIRES-Puro plasmid. This vector was transfected in the Peakrapid cell line (ATCC reference: CRL-2828™; purchased from LGC Standards SARL, Molsheim, FRANCE), HEK293 cell line derivative, cultured in EMEM culture medium (reference BE12-136F; Lonza, Vervier, BELGIUM) supplemented with 10% of foetal bovine serum (Sigma-Aldrich, Bornem, Belgium) and 1 μg/ml of Puromycin to allow the selection of recombinant cell populations. Cell clones expressing the Gα16gustducin44 were selected and the clone presenting the best functional response of T2R38 to phenylthicarbamide was used for the study (see below).
as §1
as §2, with “In scaling calcium imaging assays using this latter receptor, concentration-responses curves were performed and data were fitted to a four parameter logistic equation: y=min+ (max− min)/1+10 ^(logEC50−x)nH . Min and max are the minimum and the maximum values of the percentage of cell-activated surface respectively, y is the percentage of cell-activated surface at the x concentration and nH is the Hill coefficient.” left out

[3] = 2mM (no organic solvent), listed as HSL-C4
[4] = 2mM in DMSO 1.5%, listed as HSL-C4
[5] = 2mM in EtOH 0,4%, listed as HSL-C4

NC(=S)Nc1ccccc1 [PTC, phenylthiocarbamide, reference compound]
percentage of surface covered by activated cells ([1]; PTC 1e-7 M): 0.29% and 0.31% and 0.20%
percentage of surface covered by activated cells ([1]; PTC 5.31987e-7 M): 0.69% and 0.47%
percentage of surface covered by activated cells ([1]; PTC 7.66061e-7 M): 0.32% and 0.90%
percentage of surface covered by activated cells ([1]; PTC 1e-6 M): 0.45% and 0.40% and 0.59%
percentage of surface covered by activated cells ([1]; PTC 3.16456e-6 M): 0.30% and 0.15% and 0.74%
percentage of surface covered by activated cells ([1]; PTC 1e-5 M): 0.11% and 0.26% and 0.07%
percentage of surface covered by activated cells ([1]; PTC 0.0001 M): 0.06% and 0.11%
response of empty vector transfected cells (S7_fig raw data) ([1]; PTC 0.1 mM, empty vector, experiments 1-5): 0.078% and 0.55% and 0.518% and 0.35% and 0.26%
percentage of surface covered by activated cells ([1]; PTC 0.001 M): 0.59% and 0.12% and 0.20%
percentage of surface covered by activated cells ([2]; PTC 1e-7 M): 0.32% and 0.0439% and 0.30% and 0.38% and 0.0433% and 0.37%
percentage of surface covered by activated cells ([2]; PTC 5.31987e-7 M): 0.29% and 0.21% and 0.40% and 0.74%
percentage of surface covered by activated cells ([2]; PTC 7.66061e-7 M): 0.42% and 0.94% and 0.57%
percentage of surface covered by activated cells ([2]; PTC 1e-6 M): 0.15% and 0.33% and 0.74% and 1.61% and 0.19% and 0.16%
percentage of surface covered by activated cells ([2]; PTC 3.16456e-6 M): 0.91% and 1.80% and 0.81% and 1.93% and 1.12% and 1.19%
percentage of surface covered by activated cells ([2]; PTC 1e-5 M): 9.30% and 8.69% and 5.20% and 5.77% and 8.28% and 3.33%
percentage of surface covered by activated cells ([2]; PTC 0.0001 M): 16.96% and 16.52% and 12.58% and 13.19% and 14.04% and 11.95%
response of T2R38 PAV transfected cells (S7_fig raw data) ([2]; PTC 0.1 mM, T2R38 PAV, experiments 1-5): 30% and 29% and 24% and 17% and 23%
percentage of surface covered by activated cells ([2]; PTC 0.001 M): 16.18% and 8.32% and 10.10% and 7.45% and 11.65% and 8.92%
EC50 ([2]; mean ± SEM of n = 3 experiments): 9.7 ± 0.4 µM

CCCC(=O)N[C@H]1CCOC1=O [C4HSL, N-butyryl-L-homoserine lactone, reference compound]
percentage of surface covered by activated cells [1, 3]: 0.08% and 2.07% and 0.35% and 0.32% and 0.65% and 0.13%
percentage of surface covered by activated cells [1, 4]: 0.56% and 1.82% and 1.06% and 0.36% and 0.33% and 0.98%
percentage of surface covered by activated cells [1, 5]: 0.40% and 0.69% and 0.43% and 0.56% and 1.49% and 0.68%
agonist activity on T2R38 (in words) [2]: are not agonists of the receptor in our hands
percentage of surface covered by activated cells [2, 3]: 0.38% and 0.93% and 0.34% and 0.53% and 0.11% and 0.17%
percentage of surface covered by activated cells [2, 4]: 6.92% and 3.48% and 5.97% and 2.36% and 9.56% and 4.46%
percentage of surface covered by activated cells [2, 5]: 0.27% and 1.95% and 2.21% and 0.24% and 0.29% and 1.29%
average calcium response, % of the one induced by 0.1 mM of PTC ([2]; dissolved in DMSO 1.5% (209 mM)): 33%
specific activation of T2R38 [2]: did not trigger a specific activation of T2R38
specific activation of T2R38 ([2]; listed as HSLC4): remained without effect on the receptor
response of T2R38 [2]: did not elicit a response of T2R38
response of T2R38 ([2]; listed as HSLC4): remained without effect on the receptor

CSSC [dimethyldisulfide, dimethyl disulfide]
percentage of surface covered by activated cells ([1]; dimethyldisulfide 0.00251189, log10[ ] -2.6): 0.21% and 0.13% and 0.27% and 1.93% and 1.05% and 0.36% and 1.26%
agonist activity on T2R38 (in words) [2]: able to specifically trigger this receptor
EC50 [2]: 3000 µM
surface covered by activated cells (given as fraction) ([2]; dimethyldisulfide 0.000251189, log10[ ] -3.6, experiment 6): 0.0087 and 0.0151
surface covered by activated cells (given as fraction) ([2]; dimethyldisulfide 0.000398107, log10[ ] -3.4, experiment 6): 0.0033 and 0.0066
surface covered by activated cells (given as fraction) ([2]; dimethyldisulfide 0.000630957, log10[ ] -3.2, experiment 6): 0.0100 and 0.0078
surface covered by activated cells (given as fraction) ([2]; dimethyldisulfide 0.001, log10[ ] -3, experiment 6): 0.0079 and 0.0134
surface covered by activated cells (given as fraction) ([2]; dimethyldisulfide 0.00158489, log10[ ] -2.8, experiment 6): 0.0310 and 0.0369
surface covered by activated cells (given as fraction) ([2]; dimethyldisulfide 0.00398107, log10[ ] -2.4, experiment 6): 0.1269
logEC50 ([2]; given in the concentration-response curve): -2.54
Emax (% of positive control) ([2]; percentage of the response elicited by 0.1 mM PTC): 46 % of positive control
